Patent US11839639B2, “Inhibition of androgen receptor by extracts of medicinal herbs and compositions thereof” (YALE UNIVERSITY, priority 2017, dated 2023)
“Also recorded” adds a separate entry of the source.

Columns and labels:
[1] = target: androgen receptor (Homo sapiens, UniProt P10275); experiment: PSA promoter luciferase reporter assay, 22RV1 AR-luciferase reporter cells; format: cell-based; conditions: for anti-androgen receptor (AR) activity, luciferase reporter assay: 22RV1 AR-luciferase reporter cells, with DHT; for anti-androgen receptor activity, luciferase reporter assay: in present of DHT 10 nM
Procedure: 22RV1 prostate cancer cells were used in the screening study. 22RV1 cell lines were stably transfected with PSA promoter-PGL4.2 luciferase reporter. 25 nM) H T was used to induce androgen receptor for 24 h.
22RV1 androgen reporter cells were treated with herbal extracts at 30, 100, 300, and 1000 μg/ml for 24 h in a 37° C.-CO2 incubator with or without 25 nM DHT which was used androgen receptor activity. Cells were lysed using luciferase lysis buffer after which luciferase buffer with luciferin was added to generate luminescence. Luminescence was recorded using a luminescence microplate reader.

[2] = tested on: DU145 xenograft; experiment: DU145 xenograft tumor growth; format: in vivo, mouse; conditions: nude mice
Procedure: (§1) In another animal experiment, we compared the anti-prostate tumor growth effect of S6, F5, and PE1 (each 300 mg/kg bid) to enzalutamide (10 mg/kg qd) (targeting on AR) on LNCaP (androgen dependent) xenograft tumor and Du145 xenograft tumor in nude mice for two weeks.

[3] = tested on: LNCaP (androgen dependent) xenograft tumor; experiment: LNCaP xenograft tumor growth; format: in vivo, nude mice; conditions: S6, F5, PE1 each 300 mg/kg bid; enzalutamide 10 mg/kg qd; two weeks
Procedure: as §1

[4] = tested on: 22RV1 xenograft; experiment: 22RV1 xenograft tumor growth; format: in vivo, mouse; conditions: gallic acid 23 mg/kg BID orally, nude mice
Excerpt: E5 may have higher selectively to inhibit prostate cancer with AR protein in vivo. I2 may have higher selectively to inhibit prostate cancer without AR protein expression in vivo.

Chain of androgen receptor (P10275 whole entry): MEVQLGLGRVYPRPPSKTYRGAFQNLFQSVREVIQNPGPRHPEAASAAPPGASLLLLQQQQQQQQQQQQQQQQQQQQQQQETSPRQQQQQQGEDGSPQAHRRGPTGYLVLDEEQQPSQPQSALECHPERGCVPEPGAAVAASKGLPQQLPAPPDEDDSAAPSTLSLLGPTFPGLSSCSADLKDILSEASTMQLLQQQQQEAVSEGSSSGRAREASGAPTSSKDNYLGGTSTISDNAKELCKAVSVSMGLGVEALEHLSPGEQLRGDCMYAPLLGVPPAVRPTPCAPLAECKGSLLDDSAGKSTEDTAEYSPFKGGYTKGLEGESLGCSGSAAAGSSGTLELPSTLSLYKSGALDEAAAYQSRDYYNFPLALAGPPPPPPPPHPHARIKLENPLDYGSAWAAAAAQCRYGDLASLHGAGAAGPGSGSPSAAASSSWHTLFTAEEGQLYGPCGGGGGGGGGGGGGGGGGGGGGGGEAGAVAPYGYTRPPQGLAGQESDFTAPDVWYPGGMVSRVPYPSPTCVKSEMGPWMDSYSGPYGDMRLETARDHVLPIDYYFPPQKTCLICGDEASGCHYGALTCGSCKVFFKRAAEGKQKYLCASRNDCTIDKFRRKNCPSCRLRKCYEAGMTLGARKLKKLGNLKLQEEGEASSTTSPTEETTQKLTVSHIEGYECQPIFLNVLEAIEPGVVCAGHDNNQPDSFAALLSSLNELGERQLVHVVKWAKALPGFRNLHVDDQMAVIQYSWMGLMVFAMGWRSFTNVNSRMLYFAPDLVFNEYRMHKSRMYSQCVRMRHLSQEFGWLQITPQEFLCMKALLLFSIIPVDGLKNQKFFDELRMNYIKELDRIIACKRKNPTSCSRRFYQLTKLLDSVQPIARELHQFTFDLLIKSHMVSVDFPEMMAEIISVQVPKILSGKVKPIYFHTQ

Compound	anti-androgen receptor (AR) activity, luciferase reporter assay [1]	anti-androgen receptor activity, luciferase reporter assay [1]	also measured
Oc1cc(O)c2c(c1)O[C@H](c1cc(O)c(O)c(O)c1)[C@H](O)C2 [Epigallocatechin]	showed inhibition; also recorded: different potency on inhibiting AR	highest potency against AR	
CNC(=O)c1ccc(N2C(=S)N(c3ccc(C#N)c(C(F)(F)F)c3)C(=O)C2(C)C)cc1F [enzalutamide, reference compound]			growth of Du145 xenograft tumor ([2]; S6, F5, PE1 each 300 mg/kg bid, enzalutamide 10 mg/kg qd, two weeks): not Du145 tumors; growth of LNCaP xenograft tumor [3]: effectively inhibited
O=C(O)c1cc(O)c(O)c(O)c1 [gallic acid]			in vivo anti-tumor activity, 22RV1 tumor [4]: exhibit in vivo anti-tumor activity; in vivo anti-tumor activity, Du145 tumor ([2]; gallic acid 23 mg/kg BID orally): exhibit in vivo anti-tumor activity
Oc1cc(O)c2c(c1)O[C@H](c1cc(O)c(O)c(O)c1)[C@@H](O)C2 [gallocatechin]	showed inhibition; also recorded: different potency on inhibiting AR	found to have anti-androgen receptor activity	
O=C(O)c1cc(O)c2c(c1)[C@H]([C@H]1c3cc(CO)cc(O)c3C(=O)c3c(O[C@@H]4O[C@H](CO)[C@@H](O)[C@H](O)[C@H]4O)cccc31)c1cccc(O[C@@H]3O[C@H](CO)[C@@H](O)[C@H](O)[C@H]3O)c1C2=O [sennoside C]	no		
O=C(O)c1cc(O)c2c(c1)[C@H]([C@@H]1c3cc(CO)cc(O)c3C(=O)c3c(O[C@@H]4O[C@H](CO)[C@@H](O)[C@H](O)[C@H]4O)cccc31)c1cccc(O[C@@H]3O[C@H](CO)[C@@H](O)[C@H](O)[C@H]3O)c1C2=O [sennoside D]	no		
